Source: publication PMC8122463, “Coumarin-Chalcone Hybrids as Inhibitors of MAO-B: Biological Activity and In Silico Studies” (Molecules, 2021)
Entries after “also recorded” stand apart in the source; their conditions may differ.

Key:
[1] = biological target: T1, rMAO-A (Rattus norvegicus, UniProt P21396); assay: Inhibition of rMAO-A in crude rat brain mitochondria (5-HT substrate, HPLC-ED); format: biochemical; details: substrate 5-HT
T1 construct: using a suspension of crude rat brain mitochondria as enzyme source; from tissue; host or cells: rat brain (crude mitochondrial suspension)
T1 sequence (P21396 1-526): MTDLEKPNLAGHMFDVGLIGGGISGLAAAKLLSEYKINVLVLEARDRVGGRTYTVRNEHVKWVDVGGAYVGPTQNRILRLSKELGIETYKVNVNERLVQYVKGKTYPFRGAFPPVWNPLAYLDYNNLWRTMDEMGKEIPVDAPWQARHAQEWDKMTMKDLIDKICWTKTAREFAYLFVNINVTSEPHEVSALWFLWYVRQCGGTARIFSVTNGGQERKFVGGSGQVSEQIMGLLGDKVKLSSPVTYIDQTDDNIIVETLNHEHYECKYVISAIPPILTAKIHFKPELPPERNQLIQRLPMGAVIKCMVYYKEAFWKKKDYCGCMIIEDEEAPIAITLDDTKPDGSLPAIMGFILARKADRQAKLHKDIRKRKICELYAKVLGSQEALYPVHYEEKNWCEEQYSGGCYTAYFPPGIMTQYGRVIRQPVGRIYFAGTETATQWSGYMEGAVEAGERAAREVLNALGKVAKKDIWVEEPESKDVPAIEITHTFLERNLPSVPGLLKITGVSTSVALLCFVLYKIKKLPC
Procedure: (§1) Fourteen derivatives differing in the substitution pattern of the cinnamyl benzene ring were studied, these compounds were tested on rat MAO-A and B to determine their inhibitory activity MAO. A general screening was carried out at 10 µM finding moderate activity for some of the compounds against rMAO-B but none against rMAO-A. Thus, five molecules were identified as possibly selective IMAO-B.
(§2) The effect of coumarin derivatives on MAO-A and MAO-B were measured using a suspension of crude rat brain mitochondria as enzyme source. 4-Dimethylaminophenethylamine (4-DMAPEA, 2.5 µM) and 5-hydroxytryptamine (5-HT, […]) were used as substrates selective of MAO-B or MAO-A, respectively. Evaluation of the test compounds on rMAO activity was executed by measuring their effects on the production of 4-dimethylaminophenylacetic acid (DMAPAA) by rMAO-B and 5-hydroxyindoleacetic acid (5-HIAA) by rMAO-A with O2 using HPLC-ED (L-7110 LaChrom and amperometric detector L-3500 LaChrom Recipe, Hitachi, (Tokyo, Japan) (for more detail see methodological references). The IC50 values (average ± SD was measured in two independent experiments each in triplicate) were assessed representing percentage of inhibition in function of the negative logarithm of different inhibitor concentrations (10^−4 to 10^−8) using the GraphPad Prism software.

[2] = biological target: T2, rMAO-B (Rattus norvegicus, UniProt P19643); assay: Inhibition of rMAO-B in crude rat brain mitochondria (4-DMAPEA substrate, HPLC-ED); format: biochemical; details: for IC50: crude rat brain mitochondria, substrate 4-DMAPEA 2.5 µM
T2 construct: using a suspension of crude rat brain mitochondria as enzyme source; from tissue; host or cells: rat brain (crude mitochondrial suspension)
T2 sequence (P19643 1-520): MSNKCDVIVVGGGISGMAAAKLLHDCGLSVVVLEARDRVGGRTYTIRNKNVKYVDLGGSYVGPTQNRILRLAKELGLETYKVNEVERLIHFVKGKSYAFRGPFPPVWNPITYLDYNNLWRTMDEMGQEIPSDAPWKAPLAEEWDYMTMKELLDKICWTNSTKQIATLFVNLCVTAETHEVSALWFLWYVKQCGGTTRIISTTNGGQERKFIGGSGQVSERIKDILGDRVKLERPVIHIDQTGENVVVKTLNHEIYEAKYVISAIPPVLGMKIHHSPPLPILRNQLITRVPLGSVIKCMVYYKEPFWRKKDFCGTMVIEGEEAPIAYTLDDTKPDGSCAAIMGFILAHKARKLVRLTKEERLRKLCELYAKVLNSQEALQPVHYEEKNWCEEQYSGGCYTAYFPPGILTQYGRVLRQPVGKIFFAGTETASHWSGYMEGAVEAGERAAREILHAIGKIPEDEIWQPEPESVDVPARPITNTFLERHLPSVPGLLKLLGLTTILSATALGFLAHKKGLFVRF
Procedure: as §1, §2

| Compound | IC50 [1] [µM] | IC50 [2] [µM] | Fold lower IMAO activity than ChC4 ([2]; rMAO-B, relative to ChC4) | rMAO-B inhibitory activity in vitro (in words) [2] |
| --- | --- | --- | --- | --- |
| COc1cccc(/C=C/C(=O)c2cc3ccc(OC)cc3oc2=O)c1 [ChC5, (E)-7-methoxy-3-(3-(3-methoxyphenyl)acryloyl)-2H-chromen-2-one] | > 10 | 9.63 ± 0.9 | approximately 12 fold | – |
| COc1ccc2cc(C(=O)/C=C/c3ccc(Br)cc3)c(=O)oc2c1 [ChC14, (E)-3-(3-(4-bromophenyl)acryloyl)-7-methoxy-2H-chromen-2-one] | > 10 | > 10 | – | – |
| COc1ccc(/C=C/C(=O)c2cc3ccc(OC)cc3oc2=O)cc1 [ChC6, (E)-7-methoxy-3-(3-(4-methoxyphenyl)acryloyl)-2H-chromen-2-one] | > 10 | 6.96 ± 0.07 | – | – |
| COc1ccc(OC)c(/C=C/C(=O)c2cc3ccc(OC)cc3oc2=O)c1 [ChC8, (E)-3-(3-(2,5-dimethoxyphenyl)acryloyl)-7-methoxy-2H-chromen-2-one] | > 10 | > 10 | – | – |
| COc1ccc2cc(C(=O)/C=C/c3ccccc3O)c(=O)oc2c1 [ChC2, (E)-3-(3-(2-Hydroxyphenyl)acryloyl)-7-methoxy-2H-chromen-2-one] | > 10 | > 10 | – | loss of the inhibitory activity; also recorded: does not show in vitro activity |
| COc1ccc2cc(C(=O)C=Cc3ccccc3)c(=O)oc2c1 [ChC1, 3-Cinnamoyl-7-methoxy-2H-chromen-2-one] | > 10 | > 10 | – | – |
| COc1ccc2cc(C(=O)/C=C/c3ccc4c(c3)OCO4)c(=O)oc2c1 [ChC9, (E)-3-(3-(benzo[d][1,3]dioxol-5-yl)acryloyl)-7-methoxy-2H-chromen-2-one] | > 10 | 3.71 ± 0.68 | – | – |
| COc1ccc2cc(C(=O)/C=C/c3ccc(SC)cc3)c(=O)oc2c1 [ChC11] | > 10 | 5.88 ± 0.57 | – | – |
| COc1ccc2cc(C(=O)/C=C/c3cccc(O)c3)c(=O)oc2c1 [ChC4, (E)-3-(3-(3-hydroxyphenyl)acryloyl)-7-methoxy-2H-chromen-2-one] | > 10 | 0.76 ± 0.08 | – | – |
| COc1ccc2cc(C(=O)/C=C/c3cc(Br)c(OC)c(Br)c3)c(=O)oc2c1 [ChC12, (E)-3-(3-(3,5-dibromo-4-methoxyphenyl)acryloyl)-7-methoxy-2H-chromen-2-one] | > 10 | > 10 | – | – |
| COc1ccc2cc(C(=O)/C=C/c3ccc(O)c(OC)c3)c(=O)oc2c1 [ChC10] | > 10 | > 10 | – | loss of the inhibitory activity |
| COc1ccc2cc(C(=O)/C=C/c3ccccc3OC)c(=O)oc2c1 [ChC3, (E)-7-methoxy-3-(3-(2-methoxyphenyl)acryloyl)-2H-chromen-2-one] | > 10 | > 10 | – | – |
| COc1ccc2cc(C(=O)/C=C/c3ccc(N(C)C)cc3)c(=O)oc2c1 [ChC13, (E)-3-(3-(4-(dimethylamino)phenyl)acryloyl)-7-methoxy-2H-chromen-2-one] | > 10 | > 10 | – | – |
